# In patent US20220213099A1, “PRODRUG COMPOUNDS” (BRISTOL-MYERS SQUIBB COMPANY, priority 2019, published 2022):
# Where a name gives a salt, the structure may show the parent alone. Read-outs that look alike come from different tables or passages of the source.
# How the values were obtained:
# [1] = Solubility evaluation in aqueous buffer; type: physicochemical; conditions: aqueous buffer, 25 °C, thermodynamic from solid, about 24 hours equilibration
# Method: The solid powder of an individual prodrug was equilibrated in aqueous buffers of pH 1, 4 and 6.5 at 25° C. for about 24 hours. After equilibration, the excess solid was separated by filtration using 0.45 μm membrane filter and the filtrate was collected in suitable glass vial. The filtrate was diluted appropriately using respective buffers/diluent and analyzed by a reversed phase LC method with UV detection.
# [2] = Stability evaluation in aqueous buffer; type: physicochemical; conditions: aqueous buffer, 37° C., about 50 μg/mL, about 15% v/v acetonitrile
# Method: The stability study of an individual prodrug was conducted with about 50 μg/mL solutions in aqueous buffers of pH 1 (0.1 M HCl), 4 (acetate buffer) and 6.5 (phosphate buffer) at 37° C. for 24 hours. About 15% v/v acetonitrile was used in these pH buffers as a co-solvent to obtain clear solutions of prodrugs. The sample analysis was carried out using a generic reversed phase liquid chromatographic (LC) method with UV detection. The area percent (AP) loss of the prodrug peak was quantified as a function of time. The appearance of parent peak was identified from the chromatographic retention time. The half-life (t1/2, h) of the prodrug was calculated by using a pseudo-first order equation from a AP loss vs time plot.
# rat rIALP = assay: Recombinant intestinal alkaline phosphatase (rIALP) assay, rat; type: in vitro ADME; conditions: 100 mM Tris-HCl buffer pH 7.4, 37° C., 120 minutes incubation, read-out: t1/2 in rat rIALP
# Method: (§1) Examples 8 and 9 were evaluated in this assay. To assess the potential for generation of parent drug from the phosphate prodrugs, 100 μL of rIALP was dissolved in 100 mM Tris-HCl buffer (pH 7.4) and it was added to 100 μL of freshly prepared prodrug solution (10 mM) prepared in the same buffer. Incubations were performed in triplicate using 96-well plates (Waters, Milford, Mass.) at 37° C. in a shaking water bath (Julabo, Allentown, Pa.). The prodrug and enzyme solution were pre-warmed at 37° C. before the reaction was initiated by addition of substrate. The incubation was performed for 120 minutes with […] taken at 0, 5, 10, 15, 30, 60, 90, and 120 minutes. The assays were terminated at designated time points by the addition of 200 μL of ice-cold acetonitrile containing internal standard followed by centrifugation at 4000 g for 4 minutes. The supernatant was transferred to a new 96-well plate for analysis by ultra-performance liquid chromatography combined with tandem mass spectrometry (UPLC-MS/MS). The t1/2 value for each prodrug/protein combination was determined from the natural logarithm of percent remaining versus time plots.
# human rIALP = target: T1, human rIALP (Homo sapiens, UniProt P09923); assay: Recombinant intestinal alkaline phosphatase (rIALP) assay, human; type: in vitro ADME; conditions: 100 mM Tris-HCl buffer pH 7.4, 37° C., 120 minutes incubation, read-out: t1/2 in human rIALP
# T1 sequence (P09923 20-503 limits assumed): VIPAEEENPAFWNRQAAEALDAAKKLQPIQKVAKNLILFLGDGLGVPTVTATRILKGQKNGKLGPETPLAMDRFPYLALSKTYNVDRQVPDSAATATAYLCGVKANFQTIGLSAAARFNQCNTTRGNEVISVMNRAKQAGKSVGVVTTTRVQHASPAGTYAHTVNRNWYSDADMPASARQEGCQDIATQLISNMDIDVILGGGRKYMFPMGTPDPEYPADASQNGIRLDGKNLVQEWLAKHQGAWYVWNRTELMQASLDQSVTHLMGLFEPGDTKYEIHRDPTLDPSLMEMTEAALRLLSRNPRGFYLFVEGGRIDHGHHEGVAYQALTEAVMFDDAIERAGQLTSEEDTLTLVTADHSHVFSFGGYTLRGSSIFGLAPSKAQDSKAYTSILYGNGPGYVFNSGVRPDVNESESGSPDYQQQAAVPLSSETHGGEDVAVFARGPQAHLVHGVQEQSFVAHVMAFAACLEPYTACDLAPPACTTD
# Method: as §1
structure (smiles),measurement,setting,value
"Cc1c(-c2[nH]c3ccc(C4CC[N+](COP(=O)(O)O)(CC(N)=O)CC4)cc3c2C(C)C)cn2ncnc2c1C (single isomer, unassigned) [Example 9, 1-(2-Amino-2-oxoethyl)-4-(2-(7,8-dimethyl-[1,2,4]triazolo[1,5-a]pyridin-6-yl)-3-isopropyl-1H-indol-5-yl)-1-((phosphonooxy)methyl)piperidin-1-ium trifluoroacetate]",solubility,"[1]; pH 1, simulated gastric fluid, aqueous buffer pH 1, 25° C., read-out: Solubility (mg/mL) at 25° C. pH 1",> 1.14 mg/mL
same,solubility,"[1]; pH 4, aqueous buffer, aqueous buffer pH 4, 25° C., read-out: Solubility (mg/mL) at 25° C. pH 4",0.85 mg/mL
same,solubility,"[1]; pH 6.5, aqueous buffer, aqueous buffer pH 6.5, 25° C., read-out: Solubility (mg/mL) at 25° C. pH 6.5",1.34 mg/mL
same,half-life,"[2]; pH 1, pH 1 (0.1 M HCl), read-out: Stability (t1/2, h) at 37° C. pH 1 (converted)",> 500 h
same,half-life,"[2]; pH 4, pH 4 (acetate buffer), read-out: Stability (t1/2, h) at 37° C. pH 4 (converted)",> 500 h
same,half-life,"[2]; pH 6.5, pH 6.5 (phosphate buffer), read-out: Stability (t1/2, h) at 37° C. pH 6.5 (converted)",> 500 h
same,half-life at 5 mM,rat rIALP,< 5 min
same,half-life at 5 mM,human rIALP,< 5 min
